Laboratory results from ChEMBL document CHEMBL1201862, “PubChem BioAssay data set” (2004).
Active and inactive are the calls of the source. *1 amine or outer side, *2 acyl side, *3 side chain or, on linkers, in order; H or OH if unused. Where a SMILES comes first, the peptide text is derived from it. Bridges are numbered along the chain shown (N, C = ends). [ ]: non-standard residue; d: D form. The star is where a group is joined. X56 = CC(C)C(C)C(C(=O)[*:2])N(C)[*:1]; Picolinoyl(3-OH) = O=C(c1ncccc1O)*; NMePhg = CN[CH](C(=O)O)c1ccccc1; Hyp = O=C(O)[CH]1C[CH](O)CN1; Sar = CNCC(=O)O

Experiments:
cells [1] = assay type: functional, cell-based
cells [2] = assay type: functional, cell-based; remark: listed apart in the source
Cytochrome P450 2C19 = Cytochrome P450 2C19 (Homo sapiens, UniProt P33261); assay: Cytochrome panel assay with activity outcomes. Panel member name: p450-cyp2c19 Compounds with AC50 equal or less than 10 uM are considered active; assay type: functional
Chain of Cytochrome P450 2C19 (P33261 whole entry): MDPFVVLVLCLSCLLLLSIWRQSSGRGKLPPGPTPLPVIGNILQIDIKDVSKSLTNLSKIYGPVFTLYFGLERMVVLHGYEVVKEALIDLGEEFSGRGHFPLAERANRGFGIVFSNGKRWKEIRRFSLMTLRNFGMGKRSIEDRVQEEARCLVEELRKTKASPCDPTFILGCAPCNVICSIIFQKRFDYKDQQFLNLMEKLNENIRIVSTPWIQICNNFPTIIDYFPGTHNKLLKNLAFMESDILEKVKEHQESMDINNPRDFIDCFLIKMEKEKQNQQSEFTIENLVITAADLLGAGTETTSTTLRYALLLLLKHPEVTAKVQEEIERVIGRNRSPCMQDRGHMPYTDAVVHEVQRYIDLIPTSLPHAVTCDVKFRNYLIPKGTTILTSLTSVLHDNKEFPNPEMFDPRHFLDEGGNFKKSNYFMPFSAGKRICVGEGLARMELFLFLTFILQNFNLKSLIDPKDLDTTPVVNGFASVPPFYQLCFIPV

Vero = assay: cells; assay type: functional; settings: Chlorocebus sabaeus
[3] = molecular target: T1, Polyadenylate-binding protein 1 (Homo sapiens, UniProt P11940); assay: PABP1 MLLE–PAM2 binding inhibitor potency, dose response, biochemical, fluorescence polarization, FITC-PAM2 peptide (AID 602259); assay type: functional; settings: read-out: IC50_Mean
T1 sequence (P11940 whole entry): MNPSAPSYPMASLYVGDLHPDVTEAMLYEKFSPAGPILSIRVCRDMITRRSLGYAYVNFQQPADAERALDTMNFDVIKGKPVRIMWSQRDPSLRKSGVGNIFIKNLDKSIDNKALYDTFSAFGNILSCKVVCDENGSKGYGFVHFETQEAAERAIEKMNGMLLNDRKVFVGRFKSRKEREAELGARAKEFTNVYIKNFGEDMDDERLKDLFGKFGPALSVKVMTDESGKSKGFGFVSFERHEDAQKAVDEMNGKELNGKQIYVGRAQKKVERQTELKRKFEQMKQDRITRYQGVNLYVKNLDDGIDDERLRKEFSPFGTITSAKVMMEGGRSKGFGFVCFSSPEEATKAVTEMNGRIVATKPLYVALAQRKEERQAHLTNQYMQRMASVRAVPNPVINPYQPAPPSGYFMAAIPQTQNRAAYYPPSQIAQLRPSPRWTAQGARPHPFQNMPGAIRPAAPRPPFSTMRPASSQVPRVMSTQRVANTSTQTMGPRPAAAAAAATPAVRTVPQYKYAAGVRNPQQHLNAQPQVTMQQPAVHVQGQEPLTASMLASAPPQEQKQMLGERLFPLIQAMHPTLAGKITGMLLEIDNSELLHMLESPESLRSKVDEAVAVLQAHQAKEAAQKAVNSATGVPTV

[4] = molecular target: T1, Polyadenylate-binding protein 1; assay: PABP1 MLLE–PAM2 interaction inhibitors, dose response, miRNA deadenylation inhibitor project, biochemical, fluorescence polarization, Cy5-PAM2 peptide, secondary (AID 602260); assay type: functional; settings: read-out: IC50_Mean
[5] = molecular target: Glyceraldehyde-3-phosphate dehydrogenase (Homo sapiens, UniProt P04406)
Chain of Glyceraldehyde-3-phosphate dehydrogenase (P04406 whole entry): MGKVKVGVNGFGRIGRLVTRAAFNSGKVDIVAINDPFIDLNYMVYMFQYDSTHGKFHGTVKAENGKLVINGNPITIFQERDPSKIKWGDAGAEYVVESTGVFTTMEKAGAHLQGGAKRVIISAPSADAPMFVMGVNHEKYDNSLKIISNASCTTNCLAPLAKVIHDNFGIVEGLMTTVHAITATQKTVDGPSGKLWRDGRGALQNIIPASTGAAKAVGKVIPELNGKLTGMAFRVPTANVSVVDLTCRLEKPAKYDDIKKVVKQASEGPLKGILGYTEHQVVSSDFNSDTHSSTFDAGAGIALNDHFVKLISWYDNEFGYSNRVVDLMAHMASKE

Genome polyprotein = Genome polyprotein (dengue virus type 2, UniProt P29990); assay: Dengue-2 NS5 methyltransferase inhibitors, primary screen, biochemical, confirmation dose response (AID 588689); assay type: functional
Chain of Genome polyprotein (P29990 2492-3391 limits assumed): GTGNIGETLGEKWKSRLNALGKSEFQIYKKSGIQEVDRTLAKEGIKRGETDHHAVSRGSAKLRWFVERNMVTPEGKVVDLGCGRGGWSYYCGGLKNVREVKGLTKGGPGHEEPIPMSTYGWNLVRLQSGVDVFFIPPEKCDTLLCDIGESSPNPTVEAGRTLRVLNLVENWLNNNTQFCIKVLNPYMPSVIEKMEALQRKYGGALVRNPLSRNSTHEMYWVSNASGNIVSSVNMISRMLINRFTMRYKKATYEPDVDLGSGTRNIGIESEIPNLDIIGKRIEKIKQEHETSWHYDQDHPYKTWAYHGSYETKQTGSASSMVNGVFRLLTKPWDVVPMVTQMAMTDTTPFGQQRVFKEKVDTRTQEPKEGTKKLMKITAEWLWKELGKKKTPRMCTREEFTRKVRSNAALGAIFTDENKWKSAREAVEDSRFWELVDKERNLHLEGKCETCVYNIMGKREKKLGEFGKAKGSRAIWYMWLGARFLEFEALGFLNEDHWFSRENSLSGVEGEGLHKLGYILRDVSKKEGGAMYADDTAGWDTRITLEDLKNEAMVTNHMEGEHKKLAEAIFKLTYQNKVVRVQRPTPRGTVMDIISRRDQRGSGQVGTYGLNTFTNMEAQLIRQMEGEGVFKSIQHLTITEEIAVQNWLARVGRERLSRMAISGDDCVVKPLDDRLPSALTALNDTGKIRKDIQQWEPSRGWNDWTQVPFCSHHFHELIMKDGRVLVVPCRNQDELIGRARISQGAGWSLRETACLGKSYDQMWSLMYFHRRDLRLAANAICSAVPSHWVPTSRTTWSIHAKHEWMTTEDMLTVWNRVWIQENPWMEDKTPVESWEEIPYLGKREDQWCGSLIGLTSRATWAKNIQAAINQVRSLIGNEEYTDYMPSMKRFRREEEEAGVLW

[6] = NIH-3T3 fibroblast cytotoxicity, dose response, cytotoxicity control, cell-based, fluorescence, Alamar Blue, secondary assay (AID 2327); assay type: functional;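 also: NIH-3T3 mouse fibroblasts cultured with fluconazole at 8 µg/mL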
[7] = C. albicans growth with fluconazole, confirmation, fluorescence, retest (AID 2467); assay type: functional, cell-based
[8] = HEp-2 cell cytotoxicity, dose response, cytotoxicity control for RSV inhibitor project, HTS (AID 2410); assay type: functional; settings: human respiratory syncytial virus
Cytochrome P450 2D6 = Cytochrome P450 2D6 (Homo sapiens, UniProt P10635);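 also: CYP2D6 member of a cytochrome P450 panel assay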
Chain of Cytochrome P450 2D6 (P10635 whole entry): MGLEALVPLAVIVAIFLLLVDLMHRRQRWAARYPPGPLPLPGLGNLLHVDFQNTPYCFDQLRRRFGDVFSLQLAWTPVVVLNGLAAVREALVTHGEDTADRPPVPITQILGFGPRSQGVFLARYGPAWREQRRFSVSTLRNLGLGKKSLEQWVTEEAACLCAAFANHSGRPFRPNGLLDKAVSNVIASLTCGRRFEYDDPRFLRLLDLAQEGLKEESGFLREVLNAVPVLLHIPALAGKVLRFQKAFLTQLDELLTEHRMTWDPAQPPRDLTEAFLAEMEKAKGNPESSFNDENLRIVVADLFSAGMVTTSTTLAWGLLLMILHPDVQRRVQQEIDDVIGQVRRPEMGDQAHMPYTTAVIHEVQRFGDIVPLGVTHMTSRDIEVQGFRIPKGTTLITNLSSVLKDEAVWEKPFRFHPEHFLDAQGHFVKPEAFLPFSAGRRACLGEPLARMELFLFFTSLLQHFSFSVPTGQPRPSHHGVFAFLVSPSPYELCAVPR

Cytochrome P450 3A4 = Cytochrome P450 3A4 (Homo sapiens, UniProt P08684);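 also: CYP3A4 tested as one member of a cytochrome P450 panel screen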
Chain of Cytochrome P450 3A4 (P08684 whole entry): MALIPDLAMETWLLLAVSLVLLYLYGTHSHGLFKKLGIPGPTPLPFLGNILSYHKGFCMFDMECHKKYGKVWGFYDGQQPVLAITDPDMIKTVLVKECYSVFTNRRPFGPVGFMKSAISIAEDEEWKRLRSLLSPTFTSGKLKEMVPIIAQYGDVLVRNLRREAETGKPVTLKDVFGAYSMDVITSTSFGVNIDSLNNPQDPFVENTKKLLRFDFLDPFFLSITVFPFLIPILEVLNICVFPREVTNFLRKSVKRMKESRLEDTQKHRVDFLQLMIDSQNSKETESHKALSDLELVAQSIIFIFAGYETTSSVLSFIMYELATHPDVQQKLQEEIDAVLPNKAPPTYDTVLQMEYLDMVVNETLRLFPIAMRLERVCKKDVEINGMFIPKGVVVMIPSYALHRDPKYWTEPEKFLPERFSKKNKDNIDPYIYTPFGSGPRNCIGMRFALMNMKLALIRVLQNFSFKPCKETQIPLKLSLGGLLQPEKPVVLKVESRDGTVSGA

[9] = molecular target: T2, Ubiquitin-conjugating enzyme E2 N (Homo sapiens, UniProt P61088); assay type: functional;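 also: Dose-response confirmation in a TR-FRET assay detecting UBC13-driven polyubiquitin chain formation, inhibition measured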
T2 sequence (P61088 whole entry): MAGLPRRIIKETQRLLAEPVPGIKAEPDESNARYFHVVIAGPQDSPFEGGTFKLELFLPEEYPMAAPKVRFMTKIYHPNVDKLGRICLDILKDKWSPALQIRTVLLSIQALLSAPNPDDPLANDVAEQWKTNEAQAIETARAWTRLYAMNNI

SN12K1 = assay: cells; assay type: functional; settings: Homo sapiens
P388/ADR = assay: cells; assay type: functional; settings: Mus musculus
P388 = assay: cells; assay type: functional; settings: Mus musculus
[10] = molecular target: FAD-linked sulfhydryl oxidase ALR (Homo sapiens, UniProt P55789); assay: inhibitors of human ALR sulfhydryl oxidase, dose response, biochemical, H2O2 detection, luminescence, cherry-pick (AID 493248)
Chain of FAD-linked sulfhydryl oxidase ALR (P55789 whole entry): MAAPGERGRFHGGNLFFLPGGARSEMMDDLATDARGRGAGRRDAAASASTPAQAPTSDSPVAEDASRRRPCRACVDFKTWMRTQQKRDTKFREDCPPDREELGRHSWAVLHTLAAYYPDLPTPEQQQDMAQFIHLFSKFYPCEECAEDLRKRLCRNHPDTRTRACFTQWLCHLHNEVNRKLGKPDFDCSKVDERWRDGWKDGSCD

Nonstructural protein 1 = Nonstructural protein 1 (Influenza A virus, UniProt Q194T2); assay type: functional, Influenza A virus (A/California/07/2009(H1N1))
Chain of Nonstructural protein 1 (Q194T2 whole entry): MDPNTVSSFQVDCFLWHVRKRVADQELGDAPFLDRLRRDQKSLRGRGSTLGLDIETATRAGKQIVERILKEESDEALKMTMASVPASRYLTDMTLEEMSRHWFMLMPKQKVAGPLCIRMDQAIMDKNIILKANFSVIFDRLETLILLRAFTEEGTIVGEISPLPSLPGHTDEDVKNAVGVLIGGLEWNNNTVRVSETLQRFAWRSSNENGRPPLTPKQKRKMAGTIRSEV

[11] = Luminescence Cell-Based Dose Retest to Confirm Inhibitors of Cancer Stem Cells. [Related pubchem assays (depositor defined):AID2717, AID2721]; assay type: functional; settings: Homo sapiens
Large T antigen = Large T antigen (Simian virus 40, UniProt P03070); assay type: functional, Betapolyomavirus macacae;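 also: Confirmatory-stage PubChem screen for compounds that inhibit SV40 T antigen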
Chain of Large T antigen (P03070 whole entry): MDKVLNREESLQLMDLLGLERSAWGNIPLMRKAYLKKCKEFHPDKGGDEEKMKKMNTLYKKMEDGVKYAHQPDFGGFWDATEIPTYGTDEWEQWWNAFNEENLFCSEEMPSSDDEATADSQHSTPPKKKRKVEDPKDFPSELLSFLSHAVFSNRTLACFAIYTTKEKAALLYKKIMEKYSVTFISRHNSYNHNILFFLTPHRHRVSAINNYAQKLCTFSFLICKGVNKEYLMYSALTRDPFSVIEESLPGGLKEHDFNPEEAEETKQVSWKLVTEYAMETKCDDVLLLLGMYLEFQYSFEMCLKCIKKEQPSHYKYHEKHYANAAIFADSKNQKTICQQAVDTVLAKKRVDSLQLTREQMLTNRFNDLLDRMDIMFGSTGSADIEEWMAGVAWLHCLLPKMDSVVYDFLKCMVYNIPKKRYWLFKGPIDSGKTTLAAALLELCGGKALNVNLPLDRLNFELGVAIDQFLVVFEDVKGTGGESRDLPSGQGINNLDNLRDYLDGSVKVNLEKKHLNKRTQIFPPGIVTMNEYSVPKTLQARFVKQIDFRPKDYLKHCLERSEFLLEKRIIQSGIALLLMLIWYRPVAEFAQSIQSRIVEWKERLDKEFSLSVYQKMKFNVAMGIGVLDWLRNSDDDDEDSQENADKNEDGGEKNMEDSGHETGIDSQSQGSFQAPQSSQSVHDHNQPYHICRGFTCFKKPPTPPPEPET

Cytochrome P450 2C9 = Cytochrome P450 2C9 (Homo sapiens, UniProt P11712)
Chain of Cytochrome P450 2C9 (P11712 whole entry): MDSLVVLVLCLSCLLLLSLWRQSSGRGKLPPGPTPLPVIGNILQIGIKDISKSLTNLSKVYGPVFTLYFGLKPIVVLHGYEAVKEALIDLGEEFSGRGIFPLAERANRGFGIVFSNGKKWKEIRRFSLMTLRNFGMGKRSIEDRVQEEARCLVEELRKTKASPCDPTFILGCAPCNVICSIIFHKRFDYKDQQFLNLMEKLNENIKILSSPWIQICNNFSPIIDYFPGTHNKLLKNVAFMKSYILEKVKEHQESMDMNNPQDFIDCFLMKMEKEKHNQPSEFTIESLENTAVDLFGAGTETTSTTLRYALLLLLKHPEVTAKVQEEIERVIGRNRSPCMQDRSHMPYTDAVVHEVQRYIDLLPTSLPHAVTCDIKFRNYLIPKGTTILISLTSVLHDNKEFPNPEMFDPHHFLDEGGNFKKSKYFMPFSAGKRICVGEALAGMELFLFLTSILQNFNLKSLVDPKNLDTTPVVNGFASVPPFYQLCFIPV

Cc1c(Cl)c([N+](=O)[O-])nn1CC(=O)NC12CC3CC(CC(C3)C1)C2
EC50 (cells [1]): > 350 µM (not active)
EC50 (cells [2]): > 350 µM (not active)

CC(SCc1cn2cc(Cl)ccc2n1)C(=O)O (centres undefined)
AC50 (Cytochrome P450 2C19): 28.2 µM (inconclusive)

COc1ccc(C(=O)/C=C/c2ccccc2F)c(OC(=O)c2ccc([N+](=O)[O-])cc2)c1
CC50 (Vero): 20.9 µM (active)

CCC(C)N(C(=O)CSc1ccc(NC(C)=O)cc1)C1CCS(=O)(=O)C1 (centres undefined)
IC50 [3]: > 66 µM (inactive)
IC50 [4]: > 66 µM (inactive)

Cc1cccc(N2C(=O)C(Cl)=C(N3CCN(C/C=C/c4ccccc4)CC3)C2=O)c1
IC50 [5]: > 50 µM (inconclusive)

C#CCOc1c(/C=C\c2nc(O)c([N+](=O)[O-])c(O)n2)cc(Br)cc1OC
IC50 (Genome polyprotein): 74.5 µM (active)

Cc1cc(OC(=O)c2ccco2)c2c3c(c(=O)oc2c1)CCCC3
EC50 [6]: > 160 µM (inactive)
EC50 [7]: 5.16 µM (active)
CC50 [8]: 33.1 µM (active)

O=C1OCC(c2ccccc2)=C1c1ccc(S(=O)(=O)N2CCOCC2)s1
AC50 (Cytochrome P450 2D6): 31.6 µM (inconclusive)
AC50 (Cytochrome P450 3A4): 28.2 µM (inconclusive)
AC50 (Cytochrome P450 2C19): 22.4 µM (inconclusive)

CCc1ccc(C(=O)Nn2c(C)nc3ccccc3c2=O)cc1
IC50 [9]: > 20 µM (inactive)

CCCOc1ccc(CSC(CC(=O)O)C(=O)O)cc1 (centres undefined)
AC50 (Cytochrome P450 2C19): 0.224 µM (inconclusive)

O=C(NNc1ccc([N+](=O)[O-])cn1)Nc1ccc(N=Nc2ccccc2)cc1
CC50 (Vero): 19.4 µM (active)

COc1ccc2[nH]cc(/C=C(/C)c3ccncc3)c2c1
GI50 (SN12K1): 16 µM (inactive)
GI50 (P388/ADR): 2.99 µM (inactive)
GI50 (P388): 3.07 µM (inactive)

COC1/C=C\C=C(/C)C(=O)NC2=CC(=O)C=C(C2=O)C(OC)C(C)CC(OC)C(OC)C(C)/C=C(/C)C1OC(N)=O (centres undefined)
GI50 (SN12K1): 1.69 µM (inactive)
GI50 (P388/ADR): 1.29 µM (inactive)
GI50 (P388): 0.0166 µM (active)

COc1ccc(C2C3CCCC(C3=O)C(c3ccc(OC)cc3)N2N=O)cc1 (centres undefined)
GI50 (SN12K1): 30.5 µM (inactive)
GI50 (P388/ADR): 17.9 µM (inactive)
GI50 (P388): 19.9 µM (inactive)

CSCC[C@@H]1C(=O)N(C)[C@H](C(C)(C)C)N1C(=O)c1ccccc1
GI50 (SN12K1): > 100 µM (inactive)
GI50 (P388): > 100 µM (inactive)

CCCSCC(P(=O)(O)O)P(=O)(O)O.NC1CCCCC1
GI50 (SN12K1): > 100 µM (inactive)
GI50 (P388/ADR): > 100 µM (inactive)
GI50 (P388): > 100 µM (inactive)

CCOC(=O)C(CC(C)C)NC(=O)C(Cc1ccc(N(CCCl)CCCl)cc1)NC(C)=O (centres undefined)
GI50 (SN12K1): 2.2 µM (inactive)
GI50 (P388/ADR): 1.91 µM (inactive)
GI50 (P388): 1.93 µM (inactive)

CCCCC#CS(=O)(=O)C(F)(F)F
GI50 (SN12K1): 51.9 µM (inactive)
GI50 (P388/ADR): 27.7 µM (inactive)
GI50 (P388): 19.7 µM (inactive)

N#C/C(=C\c1ccc(O)cc1)C(N)=O
GI50 (SN12K1): > 100 µM (inactive)
GI50 (P388/ADR): > 100 µM (inactive)
GI50 (P388): > 100 µM (inactive)

CN(C)c1ccc(/C=N/NC(=O)c2ccn(C)n2)cc1
AC50 [10]: 25.6 µM (active)

COc1ccc(Cc2nnc(N/N=C/c3ccc(O)cc3O)nc2O)cc1OC
IC50 (Nonstructural protein 1): 1.78 µM (active)
AC50 [11]: 8.28 µM (active)

CC1(C)CC(=O)C(/C=N/CCN2CCN(C(=S)Nc3cccc(Cl)c3)CC2)=C(O)C1
EC50 (cells [1]): > 350 µM (not active)
EC50 (cells [2]): > 350 µM (not active)

O=C(N/N=C/c1ccc(O)c(O)c1)C1CC1
AC50 [10]: 0.127 µM (active)
IC50 (Large T antigen): 5.55 µM (active)

Cc1nc(C#N)c(N/N=C/c2c(F)cccc2Cl)o1
AC50 [10]: 2.54 µM (active)

COc1cc(/C=N/NC(=O)c2cccc([N+](=O)[O-])c2)ccc1OCc1ccc(C)cc1
AC50 (Cytochrome P450 2C19): 2.51 µM (inconclusive)
AC50 (Cytochrome P450 2C9): 1.58 µM (inconclusive)

Cc1cc(C)cc(NC2=C(N)C(=O)c3ccccc3C2=O)c1
IC50 (Nonstructural protein 1): 37.3 µM (active)

CC(C)CC1NC(=O)C(NC(=O)c2ncccc2O)C(C)OC(=O)C(c2ccccc2)N(C)C(=O)C(C)NC(=O)C(C(C)C(C)C)N(C)C(=O)CN(C)C(=O)C2CC(O)CN2C1=O (centres undefined) ({Picolinoyl(3-OH)}-TL[Hyp][Sar][X56]A[NMePhg]; ester 1-C; configuration not given here)
GI50 (SN12K1): 51.3 µM (inactive)
GI50 (P388/ADR): > 109 µM (inactive)
GI50 (P388): 6.21 µM (inactive)
